Results published in article PMC3866116 (PLoS ONE, 2013).

How the values were obtained:
[1] = test system: HCV subgenomic replicon RNA of genotype 1b strain N (Huh7/Rep-Feo cells); experiment: Luciferase assay in HCV subgenomic replicon cell line Huh7/Rep-Feo; assay type: cell-based, hepatitis C virus
Experimental: The Huh7/Rep-Feo cell line, which harbors the subgenomic replicon RNA composed of HCV IRES, the gene of the fusion protein consisting of neomycin phosphotransferase and firefly luciferase, EMCV IRES and a nonstructural gene of genotype 1b strain N in order in Huh7 cell line, was previously established. Thus, the luciferase activity corresponds to the level of HCV RNA replication. The cell line was maintained in Dulbecco's modified Eagle medium containing 10% fetal calf serum and 0.5 mg/mL G418 and cultured in absence of G418 when they were treated with compounds. The Lunet/Con1LUN Sb #26 cell line, which harbors the subgenomic replicon RNA of the Con1 strain (genotype 1b), was described previously. The OR6 cell line, which harbors the full genomic replicon RNA of the O strain (genotype 1b), was described previously. The HCV replicon cell line derived from the genotype 2a strain JFH1 was described previously. The viral RNA derived from the plasmid pJFH1 was transcribed and introduced into Huh7OK1 cells according to the method of Wakita et al.. The virus was amplified by the several times passages. The cells were infected with the virus at a multiplicity of infection (moi) of 1 and then treated with each compound at 24 h post-infection. The culture supernatants were harvested 72 h post-treatment to estimate the viral RNA as described below.
The replicon cells were seeded at 2×10^4 cells per well in a 48-well plate 24 h before treatment. […] The resulting cells were harvested 72 h post-treatment and lysed with cell culture lysis reagent (Promega, Madison, WI). The luciferase activity of each cell lysate was estimated using a luciferase assay system (Promega). The resulting luminescence was detected by a Luminescencer-JNR AB-2100 (ATTO, Tokyo, Japan).

[2] = Cytotoxicity (MTS assay) in Huh7/Rep-Feo replicon cells; assay type: cell-based; conditions: human, Huh7/Rep-Feo cells, MTS, read-out: CC50, fifty percent cytotoxicity concentration based on the reduction in cell viability
Experimental: (§1) The replicon cells were seeded at a density of 1×10^4 cells per well in a 96-well plate and then incubated at 37°C for 24 h. […] Cell viability was measured using a dimethylthiazol carboxymethoxy-phenylsulfophenyl tetrazolium (MTS) assay with a CellTiter 96 aqueous one-solution cell proliferation assay kit (Promega).

Huh7/Rep-Feo cells = experiment: as above; assay type: cell-based; conditions: Huh7/Rep-Feo, 1.3 to 40 µM, 72 h
Experimental: as §1

ISRE-promoter activity = experiment: ISRE reporter assay in Huh7 OK1 cells; assay type: cell-based; conditions: 48 h of treatment, interferon alpha 2b as positive control
[3] = test system: ISGs (Mx1, MxA, IFIT4, ISG15, OAS1, OAS2, OAS3); experiment: RT-PCR of interferon stimulated genes in replicon cells; assay type: cell-based; conditions: replicon cell line of genotype 1b, 48 h, listed as CAPE
Experimental: Total RNAs were prepared from cells by using the RNAqueous-4PCR kit (Life Technologies, Carlsbad, CA). Viral RNA were prepared from culture supernatants by using the QIAamp Viral RNA mini kit (QIAGEN, Hilden, Germany). The viral RNA genome was estimated by the qRT-PCR method described previously. RT-PCR was carried out by the method described previously which was slightly modified at the PCR step. The PCR samples were incubated once for 10 min at 95°C for an initial activation step of the AmpliTaq Gold DNA Polymerase (Life Technologies), and then subjected to an amplification step of 30 repeats of the cycle consisting of three segments as follow: 0.5 min at 95°C, 1 min at 55°C and 1 min at 72°C. The primers used in this study were as follows: Mx1: 5′-[…]-3′ and 5′-[…]-3′;

HCV NS3 = experiment: Western blotting of NS3 in Huh7/Rep-Feo cells; assay type: cell-based, hepatitis C virus; conditions: Huh7/Rep-Feo cells treated 72 h, dose-dependent
Experimental: Western blotting was carried out by the method described previously. The antibodies to NS3 (clone 8G-2, mousemonoclonal, Abcam, Cambridge, UK), and beta-actin were purchased from Cell Signaling Technology (rabbit polyclonal, Danvers, MA, USA) and were used as the primary antibodies in this study.

## O=C(/C=C/c1ccc(O)c(O)c1)OCCc1ccccc1 [Compound 1, Caffeic acid phenethyl ester]
[1]; Hepatitis C virus, Huh-7, 72 h, read-out: EC50, fifty percent effective concentration based on the inhibition of HCV replication
  EC50: 9 ± 0.7 µM
[1]; Huh7/Rep-Feo, various concentrations (compound 1: 1.3 to 40 µM), 72 h, dose-dependent
  HCV RNA replication (luciferase activity): suppressed
[2]
  CC50 at 72 h: 136 ± 1.9 µM
Huh7/Rep-Feo cells
  cell viability: did not affect
ISRE-promoter activity
  effect on ISRE-promoter activities: no significant effects
[3]
  transcriptional expressions of ISGs (Mx1, MxA, IFIT4, ISG15, OAS1, OAS2, OAS3) induced: did not induce
HCV NS3
  NS3 protein level: decreased
